Results published in publication PMC12728655, “Engineering an Artificial Myxopyronin Derivative with Enhanced Metabolic Stability via Mutasynthesis” (JACS Au, 2025).
≈ marks a conversion by molar mass, not a printed value. Like-named read-outs stand apart in the source and are kept apart here.

What was measured:
[1] = stated as known, reference not given; cited from earlier work
in vitro [2] = assay type: in vitro ADME; conditions: plasma
Procedure: Figure S6: Metabolic stability in human liver microsomes with CYP isozyme involvement. (A) Human microsomal metabolism of MXY A (1) and (B) for MXY (8) in presence of 10 µM CYP inhibitors for CYP3A4 (ketoconazole), CYP1A2 (fluvoxamine), CYP2C9 (sulfaphenazole) or CYP2D6 (quinidine). The remaining test compound compared to t=0 min is given. (C) Corresponding half-lives (t1/2s) and fold increase compared to t1/2 of the compound in absence of inhibitors. Values represent means ± standard deviation (SD) of at least 3 independent measurements. *Mean half-life in presence of DMSO represents only assays where direct comparison to CYP inhibitors was performed; Table 2 of the main text includes additional replicates.
(§1) To determine stability in plasma, the compound (1 µM) was incubated with pooled CD-1 mouse/human or Wistar rat plasma (Neo Biotech, Nanterre, France). Samples were taken by […]
(§2) 10% methanol/acetonitrile). The plasma stability of procain, propantheline and diltiazem were determined in parallel to confirm the enzymatic activity. Samples were stored on ice until the end of the incubation and precipitated protein was removed by centrifugation (15 min, 4 °C, 4,000 g, two centrifugation steps). Concentration of the remaining test compound at the different time points was analyzed by HPLC-MS/MS (Vanquish Flex coupled to a TSQ Altis Plus, Thermo Fisher, Dreieich, Germany). The plasma stability of procain, propantheline and diltiazem were determined in parallel to confirm the enzymatic activity. […]

wt-S. aureus Newman = assay type: cell-based; conditions: Staphylococcus aureus
E. coli ΔtolC = assay: microbe, parasite or virus in culture; assay type: cell-based; conditions: Escherichia coli
M^R/V^R-S. aureus Mu50 = assay: microbe, parasite or virus in culture; assay type: cell-based; conditions: Staphylococcus aureus
in vitro [3] = conditions: Wistar, rat, microsomes
[4] = human, 1 µM
in vitro [5] = assay type: in vitro ADME; conditions: Wistar, rat, plasma
Procedure: as §1, §2

E. faecalis DSM-20478 = assay type: cell-based; conditions: Enterococcus faecalis, DSM20478
[6] = Wistar, rat, microsomes, 2 h, 1 µM
Cytotoxicity assay (MTT) = assay type: cell-based; conditions: human, HepG2 cells, HepG2, 100 μM
Procedure: (§3) by addition of 10 µL plasma to samples taken from PBS and vice versa. Samples were stored on ice until the end of the incubation and precipitated protein was removed by centrifugation (15 min, 4 °C, 4,000 g, 2 centrifugation steps). Concentration of the remaining test compound at the different time points was analyzed by HPLC-MS/MS (Vanquish Flex coupled to a TSQ Altis Plus, Thermo Fisher, Dreieich, Germany). The amount of compound bound to protein was calculated using the equation PPB [%] = 100 – 100 x (amount in buffer chamber/amount in […]
To obtain information regarding the toxicity of test compounds, their impact on the viability of human cells was investigated. HepG2 cells (2x10^4 cells per well) were seeded in 96-well, flat-bottomed culture plates in 100 µL culture medium (DMEM containing 10% fetal calve serum, 1% penicillin-streptomycin). Twenty-four hours after seeding the cells, medium was removed and replaced by medium containing test compounds in a final DMSO concentration of 1%.
Compounds were tested in duplicates at a single concentration or, for CC 50 determination, at 8 concentrations that were prepared via 2-fold serial dilutions in 1% DMSO/medium. Epirubicin and doxorubicin were used as positive controls in serial dilutions starting from 10 µM, and rifampicin was used as a negative control (at 100 µM). […]

[7] = Metabolic stability in liver microsomes; conditions: human
in vitro [8] = conditions: human, microsomes, Liver microsomes Clint
in vitro [9] = conditions: C57BL/6, mouse, microsomes
[10] = Metabolic stability in liver microsomes; conditions: C57BL/6, mouse
in vitro [11] = assay type: in vitro ADME; conditions: mouse, hepatocytes
Procedure: Metabolic stability in mouse hepatocytes
For the evaluation of combined phase I and phase II metabolic stability, the compound (1 μM) was incubated with 0.25 x 10^6 cells/mL of pooled mouse hepatocytes (Xenotech, Kansas City, USA). Cells were thawed in Leibovitz’s L-15 medium without phenol red (ThermoFisher Scientific, Waltham, USA). Briefly, cells were transferred into 50 mL of medium, followed by centrifugation at 55 g for 3 min. Supernatant was discarded and the cell count determined after gently resuspending the cell pellet in 1 mL of medium. Hepatocytes were diluted to 0.5 x 10^6 cells/mL and incubated at 37 °C, 700 rpm for 10 min, to achieve the desired final cell count after addition of an equal volume of test compounds in medium, leading to final test concentration of 1 µM at 1% DMSO. Samples were incubated at 37 °C, for 240 min, 700 rpm and the incubation was stopped after defined time points by precipitation of aliquots in 4 […]
methanol/acetonitrile). The metabolic stability of testosterone, verapamil, ketoconazole and 7-hydroxycoumarine were determined in parallel to confirm the enzymatic activity of mouse hepatocytes. Samples were stored on ice until the end of the incubation and precipitated protein was removed by centrif ugation (15 min, 4 °C, 4. 000 g). […]

in vitro [12] = assay type: in vitro ADME; conditions: plasma, pH 7.4
Procedure: Plasma protein binding was determined using the Rapid Equilibrium Dialysis (RED) system (Thermo Fisher Scientific, Waltham MA, USA). Compounds were diluted to 10 µM in 50% murine (CD-1), human or Wistar rat plasma (Neo Biotech, Nanterre, France) in PBS pH 7.4 and added to the respective chamber according to the manufacturer’s protocol, followed by addition of PBS pH 7.4 to the opposite chamber. Samples were taken immediately after addition to the plate as well as after 2, 4 and 5 h by mixing 10 µL with 80 µL ice-cold ice-cold […]
(1 picture or pasted object on this page, not shown here) […]
as §3, with “Germany).” for “Germany). The amount of compound bound to protein was calculated using the equation PPB [%] = 100 – 100 x (amount in buffer chamber/amount in”
Germany). To obtain percent viability for each sample, their ODs were related to those of DMSO controls. At least three independent measurements were performed for each compound. The calculation of CC50 was performed using the nonlinear regression function of GraphPad Prism 10 (GraphPad Software, San Diego, CA, USA).

M^R -S. aureus N315 = assay: microbe, parasite or virus in culture; assay type: cell-based; conditions: Staphylococcus aureus
[13] = Metabolic stability in liver microsomes; conditions: Wistar, rat
wt-M. tuberculosis H37Rv = assay: microbe, parasite or virus in culture; assay type: cell-based; conditions: Mycobacterium tuberculosis
Rif^R-S. aureus Newman = assay: microbe, parasite or virus in culture; assay type: cell-based; conditions: Staphylococcus aureus
[14] = Stability during large-scale production and isolation; conditions: large-scale production, also with exclusion of light
Text: We initially attempted the large-scale production of furan analog 14.

SMILES	half-life at 1 µM (in vitro [2]; CD-1, mouse)	half-life at 1 µM (in vitro [2]; human)	MIC (wt-S. aureus Newman; NEWMAN)	MIC (E. coli ΔtolC)	MIC (M^R/V^R-S. aureus Mu50)	microsomal CLint at 1 µM (in vitro [3])	half-life at 1 µM (in vitro [5])	MIC (E. faecalis DSM-20478)	Remaining amount of parent compound at 120 min [6]	viability at 48 h, 100 µM (Cytotoxicity assay (MTT))	half-life at 1 µM [7]	microsomal CLint at 1 µM (in vitro [8])	microsomal CLint at 1 µM (in vitro [9])	half-life at 1 µM [10]	half-life at 1 µM (in vitro [11])	hepatocyte CLint at 1 µM (in vitro [11])	fraction unbound at 10 µM (in vitro [12]; CD-1, mouse)	fraction unbound at 10 µM (in vitro [12]; Wistar, rat)	MIC (wt-M. tuberculosis H37Rv)	MIC (Rif^R-S. aureus Newman)	other results
CCCC/C(C)=C/C=C(\C)C(=O)c1c(O)cc([C@H](C)CC/C=C/NC(=O)OC)oc1=O [MYX B (2)]																					half-life in human liver microsomes [1]: 3 min
CCC/C(C)=C/C=C(\C)C(=O)c1c(O)cc([C@H](C)CC/C=C/NC(=O)OC)oc1=O [MYX A (1), myxopyronins A]	> 4 h	> 4 h	2 to 4 µg/mL (≈ 4.79 to 9.58 µM)	1 to 2 µg/mL (≈ 2.4 to 4.79 µM)	1 to 2 µg/mL (≈ 2.4 to 4.79 µM)	~11.6 µL/min/mg	> 4 h	> 64 µg/mL	51 ± 12%	39 ± 6%	0.122 ± 0.0417 h	157 µL/min/mg	76 µL/min/mg	0.317 ± 0.0667 h	> 4 h	< 3.8 µL/min/1e6 cells	0.0026	0.0054	4 µg/mL (≈ 9.58 µM)	2 µg/mL (≈ 4.79 µM)	Liver microsomes Clint [4]: 211 ± 37 µL/min/mg; fraction unbound at 10 µM (in vitro [12]; human): 0.0107; MIC (M^R -S. aureus N315): 4 µg/mL (≈ 9.58 µM); half-life at 1 µM [13]: ~2 h
COC(=O)N/C=C/CC[C@@H](C)c1cc(O)c(C(=O)/C(C)=C/C=C(\C)CCC(F)(F)F)c(=O)o1 [MYX (8)]	> 4 h	> 4 h	2 µg/mL (≈ 4.24 µM)	4 µg/mL (≈ 8.48 µM)	1 to 2 µg/mL (≈ 2.12 to 4.24 µM)	~11.6 µL/min/mg	> 4 h	> 64 µg/mL	49 ± 13%	44 ± 9%	0.867 ± 0.217 h	28 µL/min/mg	21 µL/min/mg	1.13 ± 0.117 h	> 4 h	< 3.8 µL/min/1e6 cells	0.0036	0.0049	2 µg/mL (≈ 4.24 µM)	2 µg/mL (≈ 4.24 µM)	fraction unbound at 10 µM (in vitro [12]; human): 0.0162; MIC (M^R -S. aureus N315): 2 to 4 µg/mL (≈ 4.24 to 8.48 µM); half-life at 1 µM [13]: ~2 h
COC(=O)N/C=C/CC[C@@H](C)c1cc(O)c(C(=O)/C(C)=C/C=C(\C)c2ccoc2)c(=O)o1 [compound 14]																					decomposition during fermentation and isolation [14]: highly susceptible to rapid decomposition
CO[C@H]1/C=C/O[C@@]2(C)Oc3c(C)c(O)c4c(O)c(c(/C=N/N5CCN(C)CC5)c(O)c4c3C2=O)NC(=O)/C(C)=C\C=C\[C@H](C)[C@H](O)[C@@H](C)[C@@H](O)[C@@H](C)[C@H](OC(C)=O)[C@@H]1C [rifampin]				16 µg/mL (≈ 19.4 µM)															0.03 µg/mL (≈ 0.0365 µM)	> 64 µg/mL	MIC (wt-S. aureus Newman; wt-S. aureus Newman, read-out: MIC): 0.005 µg/mL (≈ 0.00608 µM); MIC (M^R/V^R-S. aureus Mu50; methicillin- and vancomycin-resistant S. aureus Mu50, read-out: MIC): > 64 µg/mL; MIC (E. faecalis DSM-20478; E. faecalis DSM-20478, read-out: MIC): 1 µg/mL (≈ 1.22 µM); MIC (M^R -S. aureus N315; methicillin-resistant S. aureus N315, read-out: MIC): 0.0025 µg/mL (≈ 0.00304 µM)
